Assay results from publication PMC11062922 (Nature Chemical Biology, 2023).
“And” between values parts separate entries of the source, which are not always exact repeats. Identical values can stand only once. Like-named read-outs stand apart in the source and are kept apart here. Blank lines part the entries; values can stand above or below the compound they belong to.

Experiments:
[1] = biological target: T1, PIK3CG (Homo sapiens, UniProt P48736); assay: Kinobeads two-dose competition binding: PIK3CG; details: sheet "Kinobeads Drugmatrix-nanomolar2" (compounds in rows); read-out: Kinobeads Drugmatrix-nanomolar2: apparent Kd, PIK3CG
T1 construct: endogenous in cells
Excerpt: Supplement 41589_2023_1459_MOESM3_ESM.xlsx, sheet "Kinobeads Drugmatrix-nanomolar2" | column: PIK3CG

[2] = biological target: T2, MOB1A (Homo sapiens, UniProt Q9H8S9); assay: Kinobeads full dose-response competition binding: MOB1A; details: Gene Name MOB1A
T2 construct: to maximize the representation of endogenous proteins; endogenous in cells
T2 sequence (Q9H8S9 2-216 limits assumed): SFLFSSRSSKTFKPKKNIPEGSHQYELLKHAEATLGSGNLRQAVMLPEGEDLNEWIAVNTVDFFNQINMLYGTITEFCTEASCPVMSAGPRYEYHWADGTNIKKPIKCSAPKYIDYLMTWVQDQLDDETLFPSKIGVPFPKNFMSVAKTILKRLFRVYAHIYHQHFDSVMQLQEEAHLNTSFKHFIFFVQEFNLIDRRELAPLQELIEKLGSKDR
T2 sequence (O95835 1-1130 partner): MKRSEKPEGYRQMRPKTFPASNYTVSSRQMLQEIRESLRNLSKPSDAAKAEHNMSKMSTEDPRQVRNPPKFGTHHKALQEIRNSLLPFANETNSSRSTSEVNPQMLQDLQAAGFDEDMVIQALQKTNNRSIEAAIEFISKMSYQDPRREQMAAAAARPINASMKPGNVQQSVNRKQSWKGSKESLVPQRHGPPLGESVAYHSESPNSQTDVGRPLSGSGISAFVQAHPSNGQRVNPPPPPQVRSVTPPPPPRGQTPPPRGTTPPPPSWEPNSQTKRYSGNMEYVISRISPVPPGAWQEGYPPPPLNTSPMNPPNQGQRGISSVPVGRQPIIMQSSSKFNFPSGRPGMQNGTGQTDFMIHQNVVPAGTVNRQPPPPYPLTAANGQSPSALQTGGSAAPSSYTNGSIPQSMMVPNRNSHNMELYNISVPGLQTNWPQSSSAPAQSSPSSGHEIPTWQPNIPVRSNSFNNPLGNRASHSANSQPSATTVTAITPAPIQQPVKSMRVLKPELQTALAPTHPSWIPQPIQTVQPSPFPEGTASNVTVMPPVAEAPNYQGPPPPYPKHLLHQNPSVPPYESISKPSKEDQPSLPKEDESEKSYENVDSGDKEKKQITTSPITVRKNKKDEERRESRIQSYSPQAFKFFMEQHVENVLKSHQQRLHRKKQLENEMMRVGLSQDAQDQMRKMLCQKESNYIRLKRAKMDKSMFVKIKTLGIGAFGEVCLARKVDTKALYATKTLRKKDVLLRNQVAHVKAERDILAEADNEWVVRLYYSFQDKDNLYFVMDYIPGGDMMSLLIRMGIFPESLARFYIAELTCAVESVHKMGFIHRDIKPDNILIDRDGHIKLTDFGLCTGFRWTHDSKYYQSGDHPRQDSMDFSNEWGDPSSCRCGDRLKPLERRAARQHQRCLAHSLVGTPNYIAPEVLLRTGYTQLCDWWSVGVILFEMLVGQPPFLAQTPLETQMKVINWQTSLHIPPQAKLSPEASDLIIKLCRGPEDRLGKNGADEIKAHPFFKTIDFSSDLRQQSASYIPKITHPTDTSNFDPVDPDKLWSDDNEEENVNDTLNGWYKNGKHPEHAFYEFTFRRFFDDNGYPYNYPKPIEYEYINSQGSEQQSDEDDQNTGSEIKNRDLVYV

[3] = biological target: T3, PRKACB (Homo sapiens, UniProt P22694); assay: Kinobeads full dose-response competition binding: PRKACB; details: Gene Name PRKACB
T3 construct: endogenous in cells

[4] = biological target: T4, CK2alpha2 (CSNK2A2) (Homo sapiens, UniProt P19784); assay: Recombinant kinase activity assay (ProQinase, FlashPlate radiometric): CK2alpha2; assay type: biochemical
T4 construct: purchased ProQinase
Procedure: Kinase activity assays were performed by ProQinase. Dose-dependent activity inhibition of CDK1/cyclinB, CK2alpha1 and CK2alpha2 were measured using a FlashPlateTM-based radiometric assay at KM (ATP) of the respective kinase.

[5] = biological target: T5, BUB1 (Homo sapiens, UniProt O43683); assay: Kinobeads two-dose competition binding: BUB1; details: read-out: Lestaurtinib Drugmatrix value, Gene Name BUB1
T5 construct: endogenous in cells

[6] = biological target: T6, GSK3A (Homo sapiens, UniProt P49840); assay: Kinobeads two-dose competition binding: GSK3A; details: read-out: Lestaurtinib Drugmatrix value, Gene Name GSK3A
T6 construct: endogenous in cells

[7] = biological target: T7, HCK (Homo sapiens, UniProt P08631); assay: Kinobeads two-dose competition binding: HCK; details: read-out: Lestaurtinib Drugmatrix value, Gene Name HCK; target HCK; each column = one Lestaurtinib control replicate (batch_R1-R3)
T7 construct: endogenous in cells

[8] = biological target: T8, EPHA5 (Homo sapiens, UniProt P54756); assay: Kinobeads two-dose competition binding: EPHA5; details: read-out: Lestaurtinib Drugmatrix value, Gene Name EPHA5
T8 construct: endogenous in cells

[9] = biological target: T9, PIM3 (Homo sapiens, UniProt Q86V86); assay: Kinobeads competition binding, Lestaurtinib control replicates: PIM3
T9 construct: a mixture of lysates from five cancer cell lines; endogenous in cells

[10] = biological target: T10, DYRK1A (Homo sapiens, UniProt Q13627); assay: Kinobeads two-dose competition binding: DYRK1A; details: read-out: Lestaurtinib Drugmatrix value, Gene Name DYRK1A, target DYRK1A; each column = one Lestaurtinib control replicate (batch_R1-R3)
T10 construct: endogenous in cells

[11] = biological target: T11, PIM1 (Homo sapiens, UniProt P11309); assay: Kinobeads competition binding, Lestaurtinib control replicates: PIM1; details: read-out: Lestaurtinib Drugmatrix value; Gene Name PIM1; one column per experiment number and replicate (R1-R3)
T11 construct: a mixture of lysates from five cancer cell lines; endogenous in cells

[12] = EC50 with Correction, doses in nM, read-out: apparent Kd
[13] = eight-dose curve fit, doses in nM

- potency estimated from few doses [1]: 109 nM
Compound: CC(C)N1CC(=O)N(C)c2cnc(Nc3cccc(S(=O)(=O)CCN4CCOCC4)c3)nc21 [BI00009348]

- Relative Intensity 0.3nM ([2]; 0.3nM compound, DMSO = 1): 1.163
- Relative Intensity 1nM ([2]; 1nM compound, DMSO = 1): 0.99
- Relative Intensity 3nM ([2]; 3nM compound, DMSO = 1): 1.359
- Relative Intensity 10nM ([2]; 10nM compound, DMSO = 1): 0.9582
- Relative Intensity 30nM ([2]; 30nM compound, DMSO = 1): 0.9019
- Relative Intensity 100nM ([2]; 100nM compound, DMSO = 1): 0.7347
- Relative Intensity 300nM ([2]; 300nM compound, DMSO = 1): 0.3297
- Relative Intensity 1000nM ([2]; 1000nM compound, DMSO = 1): 0
- Kd [2, 12]: 223 nM
- EC50 [2, 13]: 223 nM
- Relative Intensity 0.3nM ([3]; 0.3nM compound, DMSO = 1): 0.9369
- Relative Intensity 1nM ([3]; 1nM compound, DMSO = 1): 1.09
- Relative Intensity 3nM ([3]; 3nM compound, DMSO = 1): 1.112
- Relative Intensity 10nM ([3]; 10nM compound, DMSO = 1): 0.9825
- Relative Intensity 30nM ([3]; 30nM compound, DMSO = 1): 0.9287
- Relative Intensity 100nM ([3]; 100nM compound, DMSO = 1): 0.758
- Relative Intensity 300nM ([3]; 300nM compound, DMSO = 1): 0.7526
- Relative Intensity 1000nM ([3]; 1000nM compound, DMSO = 1): 0.5592
- Kd [3, 12]: 145 nM
- EC50 [3, 13]: 145 nM
Compound: CCn1c(-c2nonc2N)nc2c(C#CC(C)(C)O)nc(OCCN)cc21 [GSK902056A]

Compound: COc1cc(Nc2ncc3c(C)nc(-c4cc5ccccc5[nH]4)n3n2)cc(OC)c1OC [GW869516X]
- IC50 ([4]; Enzyme CK2alpha2, Highest Assay Concentration 1.00E-06 M, read-out: IC50): 33.7 nM
- IC50 ([4]; recombinant kinase activity assay at KM (ATP), read-out: Activity IC50 CSNK2A2): 34 nM

Compound: C[C@]12O[C@H](C[C@]1(O)CO)n1c3ccccc3c3c4c(c5c6ccccc6n2c5c31)CNC4=O [Lestaurtinib]
- potency estimated from few doses [5]: 854 nM
- potency estimated from few doses [6]: 175 nM
- potency estimated from few doses [7]: 587 nM
- potency estimated from few doses [8]: 255 nM
- potency estimated from few doses ([9]; read-out: Lestaurtinib Drugmatrix value, PIM3, Gene Name PIM3; one column per experiment number and replicate (R1-R3)): 611 nM
- potency estimated from few doses ([9]; read-out: Lestaurtinib Drugmatrix value, PIM3; Gene Name PIM3; one column per experiment number and replicate (R1-R3)): 656 nM and 795 nM
- potency estimated from few doses [10]: 820 nM
- potency estimated from few doses [11]: 860 nM
